Test results published in patent publication US20240181125A1, “COMPOSITIONS AND METHODS FOR SCARLESS WOUND HEALING IN DIABETES” (Washington University, priority 2022, published 2024).
Bridge positions count the residues as written; N and C are the ends. Peptide text beside a SMILES is read from it. * marks the point of attachment. FITC = O=C1OC2(c3ccc(O)cc3Oc3cc(O)ccc32)c2ccc(NC(=S)*)cc21

Assays:
TβR2 on HDFs = target: T1, TβR2 on HDFs (Homo sapiens, UniProt P37173); experiment: PTβR2I binding and competitive binding with TGFβ1 on HDFs (IF anti-TβR2, FITC intensity); assay type: cell-based; details: 48 hours
T1 construct: host or cells: human dermal fibroblasts (HDFs)
Experimental: To test PTβR2I binding to cells, HDFs (Lonza) were seeded on type I collagen-coated cover glasses and inserted in a 6-well plate. After 24 hours, the following treatments were added into the wells: 1) PTβR2I solution (10 μg/mL) for 48 hours; 2) PTβR2I solution (10 μg/mL) for 24 hours, and then TGFβ1 (10 ng/ml) for another 24 hours; 3) TGFβ1 (10 ng/mL) for 24 hours, and then PTβR2I (10 μg/mL) for another 24 hours; and 4) both PTβR2I (10 μg/mL) and TGFβ1 (10 ng/ml) for 48 hours. Control wells contained HDF-seeded cover glasses without added PTβR2I or TGFβ1, and incubated for 48 hours. After the treatment, cells were fixed by 4% paraformaldehyde and blocked with 10% goat serum in Dulbecco's phosphate-buffered saline (DPBS). Primary antibody mouse anti-TβR2 (1:300, Santa Cruz) that was diluted in DPBS containing 3% BSA was incubated with the cells overnight at 4° C. The cells were washed three times with DPBS. A secondary antibody Alexa Fluro-647 (1:300, Fisher Scientific) was then applied for 2 h at room temperature, followed by incubating with DAPI (Millipore-Sigma) for five minutes.
To validate the above results, the fluorescence intensity of PTβR2I bound to the HDFs was measured for each treatment. Briefly, HDFs (Lonza) were seeded on type I collagen-coated 96-well black microplates. […] The fluorescence intensity was measured using the same microplate reader.

HDF = experiment: Cytotoxicity of PTβR2I on dermal fibroblasts; assay type: cell-based, human; design: dose or concentration left out as unconfirmed; details: 1 to 100
[1] = test system: human keratinocyte HaCaT cells; experiment: Cytotoxicity of PTβR2I on HaCaT cells; assay type: cell-based; design: dose or concentration left out as unconfirmed; details: 1 to 100
HaCaTs [2] = experiment: 2D scratch migration assay, HaCaT; assay type: cell-based, human; details: high glucose and TGFβ1, 48 hours
Experimental: (§1) HDFs, HaCaTs, and HAECs were cultured in 6-well plates using serum-free high glucose (4.5 g/L) basal medium with 1% P/S. After the cells reached confluency, a 200-μL pipet tip was used to scrape the cell monolayer. Then 3 mL of medium containing TGFβ1 (10 ng/ml) or TGFβ1 (10 ng/ml)/PTβR2I (10 μg/mL) was added to the wells. The cells were imaged at predetermined time points using a bright-field microscope. The distances between the scratch walls were measured using ImageJ to calculate the migration ratio

HDFs [3] = experiment: 2D scratch migration assay, HDF; assay type: cell-based, human; details: high glucose and TGFβ1, 72 hours
Experimental: as §1

HAECs = experiment: mRNA expression (RT-PCR), HAECs; assay type: cell-based, human; details: high glucose and TGFβ1
Experimental: (§2) To determine the mRNA expression of the cells (HDFs, HaCaTs, and HAECs) treated with TGFβ1 (10 ng/ml) or TGFβ1 (10 ng/ml)/PTβR2I (10 μg/mL) under high glucose conditions, RNA was extracted using Trizol (Invitrogen) and reverse transcribed using a cDNA synthesis kit (Applied Biosystems). Gene expression was performed by real-time RT-PCR, using Maxima SYBR Green/Fluorescein Master Mix (Thermofisher) and selected primer pairs, shown in Table 1 below. β-actin served as the housekeeping gene. The ΔΔCt method was used for data analysis.

HDFs [4] = experiment: mRNA expression (RT-PCR), HDFs; assay type: cell-based, human; details: high glucose and TGFβ1
Experimental: as §2

HaCaTs [5] = experiment: mRNA expression (RT-PCR), HaCaTs; assay type: cell-based, human; details: high glucose and TGFβ1
Experimental: as §2

TβR2 on the HDFs = target: T2, TβR2 on the HDFs (Homo sapiens, UniProt P37173); experiment: Bioactivity of released PTβR2I (cell binding assay on HDFs); assay type: cell-based; details: released on days 3, 8, 14; loadings 10, 20, 50 μg/mL
T2 construct: host or cells: human dermal fibroblasts (HDFs)
Experimental: Wound dressings were fabricated by encapsulating PTβR2I in the hydrogel solution at 4° C. Briefly, PTβR2I solution was mixed with 6 wt. % hydrogel solution to reach final PTβR2I concentrations of 10 μg/mL, 20 μg/mL and 50 μg/mL. The mixtures were stirred at 4° C. for 12 hours. To determine PTβR2I release kinetics, the mixtures were first incubated at 37° C. to gel. After 1 hour, the supernatant was replaced by a release medium (DPBS with 1% P/S). The medium was then collected at pre-determined time points for 21 days, and a fresh release medium was added after each collection. The concentration of the released PTβR2I was determined by measuring the fluorescence intensity and calculating the corresponding concentration using a standard curve. The bioactivity of the released PTβR2I was evaluated by its ability to bind to the TβR2 on the HDFs. The collected released medium was added to the culture medium of HDFs that were seeded in a 96-well plate. After 2 hours of incubation, the cells were washed three times with DPBS, and the fluorescence intensity was measured using a microplate reader (excitation/emission=485/535 nm).

T1 sequence (P37173 23-567): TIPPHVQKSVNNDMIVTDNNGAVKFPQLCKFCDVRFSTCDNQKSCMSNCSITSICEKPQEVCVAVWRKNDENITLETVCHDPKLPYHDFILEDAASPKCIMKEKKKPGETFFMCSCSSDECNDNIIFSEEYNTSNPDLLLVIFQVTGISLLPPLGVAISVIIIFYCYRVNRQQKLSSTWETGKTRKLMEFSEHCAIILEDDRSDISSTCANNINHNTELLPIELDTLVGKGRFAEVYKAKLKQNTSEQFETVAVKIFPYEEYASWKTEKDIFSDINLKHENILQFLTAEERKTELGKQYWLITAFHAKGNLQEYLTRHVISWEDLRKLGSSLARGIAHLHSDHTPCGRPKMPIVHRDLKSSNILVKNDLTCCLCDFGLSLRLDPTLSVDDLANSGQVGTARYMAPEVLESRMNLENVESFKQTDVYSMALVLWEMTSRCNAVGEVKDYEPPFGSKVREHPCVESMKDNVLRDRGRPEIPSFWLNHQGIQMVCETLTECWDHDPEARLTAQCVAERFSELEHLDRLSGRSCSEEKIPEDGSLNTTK
T2 sequence (P37173 23-567): as above

Q: Which results are given for `CC(C)C[C@@H]1NC(=O)CNC(=O)[C@@H](NC(=O)[C@@H](N)CCC(=O)O)CSSC[C@@H](C(=O)N[C@@H](CCCCNC(=S)Nc2ccc3c(c2)C(=O)OC32c3ccc(O)cc3Oc3cc(O)ccc32)C(=O)O)NC(=O)[C@H](CC(C)C)NC(=O)[C@H](CCCNC(=N)N)NC(=O)[C@H](Cc2c[nH]c3ccccc23)NC(=O)[C@H](C(C)C)NC(=O)[C@H](CCCNC(=N)N)NC(=O)[C@H](CC(=O)O)NC(=O)[C@@H]2CCCN2C(=O)[C@H](CCCNC(=N)N)NC(=O)CNC(=O)[C@H](C(C)C)NC(=O)[C@@H]2CCCN2C(=O)[C@H](CC(C)C)NC1=O` [PTβR2I, ECGLLPVGRPDRVWRLCK-FITC] (H-ECGLLPVGRPDRVWRLCK(FITC)-OH; disulfide 2-17; N-terminus and C-terminus assumed)?
A: fluorescent intensities of FITC-labeled PTβR2I whichever of PTβR2I or TGFβ1 bound first (TβR2 on HDFs): consistent; cell viability (HDF): no decrease in viability; cell viability [1]: no decrease in viability; migration (HaCaTs [2]): significantly higher number of cells had migrated; migration (HDFs [3]): significantly higher number of cells had migrated; HGF gene expression (HAECs): significantly enhanced; VEGFA gene expression (HAECs): significantly enhanced; IGF1 expression (HDFs [4]): significantly upregulated; IL1B mRNA expression (HDFs [4]): significantly reduced; IL6 mRNA expression (HDFs [4]): significantly reduced; TNFA mRNA expression (HDFs [4]): significantly reduced; IL1B mRNA expression (HaCaTs [5]): significantly reduced; IL6 mRNA expression (HaCaTs [5]): significantly reduced; bioactivity of released PTβR2I (TβR2 on the HDFs): remained bioactive
